According to patent US20050101595A1, “N-containing cycloalkyl-substituted amino-thiazole derivatives and pharmaceutical compositions for inhibiting cell proliferation and methods for their use” (PFIZER INC., priority 2003, published 2005):

What follows are compounds tested on HCT-116 cell line (assay: Inhibition of cell growth, tetrazolium salt (MTT) assay). Conditions: Homo sapiens, HCT-116, 120 h, first HCT-116 column (c4); MTT, three to five days; read-out: HCT-116 IC50.
Assay type: cell-based
Protocol: Inhibition of Cell Growth: Assessment of Cytotoxicity:
Inhibition of cell growth was measured using the tetrazolium salt assay, which is based on the ability of viable cells to reduce 3-(4,5-dimethylthiazol-2-yl)-2,5-[2H]-diphenyltetrazolium bromide (MTT) to formazan (Mossman, Journal of Immunological Methods, vol. 65 (1983), pp. 55-58). The water-insoluble purple formazan product was then detected spectrophotometrically. The HCT-116 cell line was used as a representative cancer cell line and grown in 96-well plates. Cells were plated in McCoy's 5A Medium at a volume of 135 μl/well. Plates were incubated for four hours before addition of inhibitor compounds. Different concentrations of inhibitor compounds were added in 0.5% (v/v) dimethylsulfoxide (15 μLuwell), and cells were incubated at 37° C. (5% CO2) for three to five days. At the end of the incubation, MTT was added to a final concentration of 0.2 mg/mL, and cells were incubated for 4 hours more at 37° C. After centrifugation of the plates and removal of medium, the absorbance of the formazan (solubilized in dimethylsulfoxide) was measured at 540 nm. […] All results were compared to control cells treated only with 0.5% (v/v) dimethylsulfoxide.
For `C[C@H](NCCS(=O)(=O)N1CCC(Nc2nc(N)c(C(=O)c3c(F)cccc3F)s2)CC1)c1ccccc1` [Example K47], the IC50 was 0.1 µM. Work on `CC(C)(NCCS(=O)(=O)N1CCC(Nc2nc(N)c(C(=O)c3c(F)cccc3F)s2)CC1)c1ccccc1` [Example K49, (4-Amino-2-{1-[2-(1-methyl-1-phenyl-ethylamino)-ethanesulfonyl]-piperidin-4-ylamino}-thiazol-5-yl)-(2,6-difluoro-phenyl)-methanone] yielded an IC50 of 0.18 µM. `CC(C)(C)CNCCS(=O)(=O)N1CCC(Nc2nc(N)c(C(=O)c3c(F)cccc3F)s2)CC1` [Example K51, (4-Amino-2-{1-[2-(2,2-dimethyl-propylamino)-ethanesulfonyl]-piperidin-4-ylamino}-thiazol-5-yl)-(2,6-difluoro-phenyl)-methanone] was tested, and the IC50 was 0.17 µM.

Same assay, conditions: Homo sapiens, HCT-116, 120 h, second HCT-116 column (c5); MTT, three to five days; read-out: HCT-116 IC50
`C[C@H](NCCS(=O)(=O)N1CCC(Nc2nc(N)c(C(=O)c3c(F)cccc3F)s2)CC1)c1ccccc1` [Example K47] showed an IC50 of 0.25 µM. `CC(C)(NCCS(=O)(=O)N1CCC(Nc2nc(N)c(C(=O)c3c(F)cccc3F)s2)CC1)c1ccccc1` [Example K49, (4-Amino-2-{1-[2-(1-methyl-1-phenyl-ethylamino)-ethanesulfonyl]-piperidin-4-ylamino}-thiazol-5-yl)-(2,6-difluoro-phenyl)-methanone] was tested, and the IC50 was 0.5 µM. In the case of `CC(C)(C)CNCCS(=O)(=O)N1CCC(Nc2nc(N)c(C(=O)c3c(F)cccc3F)s2)CC1` [Example K51, (4-Amino-2-{1-[2-(2,2-dimethyl-propylamino)-ethanesulfonyl]-piperidin-4-ylamino}-thiazol-5-yl)-(2,6-difluoro-phenyl)-methanone], the IC50 is reported as 0.5 µM.

Same assay, conditions: Homo sapiens, HCT-116, HCT116 cells; compound at 250 nM; read-out: % Inhibition HCT116 @ 250 nM
`CC(NCCS(=O)(=O)N1CCC(Nc2nc(N)c(C(=O)c3c(F)cccc3F)s2)CC1)c1ccc(F)cc1` (stereo not drawn) [Example S144] gave an inhibition at 0.25 µM of 43%. `Nc1nc(NC2CCN(S(=O)(=O)CCNCc3ccc(F)c(F)c3)CC2)sc1C(=O)c1c(F)cccc1F` [Example S127] gave an inhibition at 0.25 µM of 60%. Work on `CSCCNCCS(=O)(=O)N1CCC(Nc2nc(N)c(C(=O)c3c(F)cccc3F)s2)CC1` [Example S133] yielded an inhibition at 0.25 µM of 18%. `COCCN(CCOC)CCS(=O)(=O)N1CCC(Nc2nc(N)c(C(=O)c3c(F)cccc3F)s2)CC1` [Example S46] was tested, and the inhibition at 0.25 µM was 58%. `Nc1nc(NC2CCN(S(=O)(=O)CCNC3CCc4ccccc43)CC2)sc1C(=O)c1c(F)cccc1F` (stereo not drawn) [Example S73] showed an inhibition at 0.25 µM of 16%. Work on `COC(CN(C)CCS(=O)(=O)N1CCC(Nc2nc(N)c(C(=O)c3c(F)cccc3F)s2)CC1)OC` [Example S30] yielded an inhibition at 0.25 µM of 18%. Work on `CC(C)N(CCS(=O)(=O)N1CCC(Nc2nc(N)c(C(=O)c3c(F)cccc3F)s2)CC1)C(C)C` [Example S33] yielded an inhibition at 0.25 µM of 79%. `Nc1nc(NC2CCN(S(=O)(=O)CCNCCc3ccccn3)CC2)sc1C(=O)c1c(F)cccc1F` [Example S85] showed an inhibition at 0.25 µM of 19%. `CN1CCCC1CCNCCS(=O)(=O)N1CCC(Nc2nc(N)c(C(=O)c3c(F)cccc3F)s2)CC1` (stereo not drawn) [Example S69] gave an inhibition at 0.25 µM of 31%. Compound `Nc1nc(NC2CCN(S(=O)(=O)CCN3CCSC3)CC2)sc1C(=O)c1c(F)cccc1F` [Example S22] has an inhibition at 0.25 µM of 18%. For `Nc1nc(NC2CCN(S(=O)(=O)CCNCCc3ccc(O)cc3)CC2)sc1C(=O)c1c(F)cccc1F` [Example S117], the inhibition at 0.25 µM was 86%. `N#CCCNCCS(=O)(=O)N1CCC(Nc2nc(N)c(C(=O)c3c(F)cccc3F)s2)CC1` [Example S132] showed an inhibition at 0.25 µM of 20%. `Nc1nc(NC2CCN(S(=O)(=O)CCN[C@H]3C=CCCC3)CC2)sc1C(=O)c1c(F)cccc1F` [Example S172] gave an inhibition at 0.25 µM of 20%. In the case of `COCCN(C)CCS(=O)(=O)N1CCC(Nc2nc(N)c(C(=O)c3c(F)cccc3F)s2)CC1` [Example S65], the inhibition at 0.25 µM is reported as 8%. `Nc1nc(NC2CCN(S(=O)(=O)CCN3CCCC(O)C3)CC2)sc1C(=O)c1c(F)cccc1F` (stereo not drawn) [Example S39] was tested, and the inhibition at 0.25 µM was 14%. `Nc1nc(NC2CCN(S(=O)(=O)CCN3CCC[C@H]3CO)CC2)sc1C(=O)c1c(F)cccc1F` [Example S19] gave an inhibition at 0.25 µM of 15%. `Nc1nc(NC2CCN(S(=O)(=O)CCNCCc3cnc[nH]3)CC2)sc1C(=O)c1c(F)cccc1F` [Example S75] showed an inhibition at 0.25 µM of 12%. For `Nc1nc(NC2CCN(S(=O)(=O)CCNCCN3CCOCC3)CC2)sc1C(=O)c1c(F)cccc1F` [Example S87], the inhibition at 0.25 µM was 13%. `COc1ccc(CNCCS(=O)(=O)N2CCC(Nc3nc(N)c(C(=O)c4c(F)cccc4F)s3)CC2)cc1` [Example S104] gave an inhibition at 0.25 µM of 31%. `CC(=O)N1CCN(CCS(=O)(=O)N2CCC(Nc3nc(N)c(C(=O)c4c(F)cccc4F)s3)CC2)CC1` [Example S52] gave an inhibition at 0.25 µM of 18%. For `CCC(NCCS(=O)(=O)N1CCC(Nc2nc(N)c(C(=O)c3c(F)cccc3F)s2)CC1)c1ccccc1` (stereo not drawn) [Example S141], the inhibition at 0.25 µM was 78%. Compound `CN(C)[C@@H]1CCN(CCS(=O)(=O)N2CCC(Nc3nc(N)c(C(=O)c4c(F)cccc4F)s3)CC2)C1` [Example S62] has an inhibition at 0.25 µM of 6%. For `CC(C)C(NCCS(=O)(=O)N1CCC(Nc2nc(N)c(C(=O)c3c(F)cccc3F)s2)CC1)C(C)C` [Example S135], the inhibition at 0.25 µM was 100%. With `Nc1nc(NC2CCN(S(=O)(=O)CCNCc3cc(F)ccc3F)CC2)sc1C(=O)c1c(F)cccc1F` [Example S125] the inhibition at 0.25 µM was 49%. With `Nc1nc(NC2CCN(S(=O)(=O)CCNCCN3CCCCC3)CC2)sc1C(=O)c1c(F)cccc1F` [Example S82] the inhibition at 0.25 µM was 15%. `Nc1nc(NC2CCN(S(=O)(=O)CCNCCOCCO)CC2)sc1C(=O)c1c(F)cccc1F` [Example S147] showed an inhibition at 0.25 µM of 23%. `Cc1cc(C)cc(CNCCS(=O)(=O)N2CCC(Nc3nc(N)c(C(=O)c4c(F)cccc4F)s3)CC2)c1` [Example S143] showed an inhibition at 0.25 µM of 55%. With `CC(C)[C@@H](CO)NCCS(=O)(=O)N1CCC(Nc2nc(N)c(C(=O)c3c(F)cccc3F)s2)CC1` [Example S156] the inhibition at 0.25 µM was 17%. `Nc1nc(NC2CCN(S(=O)(=O)CCN[C@H]3CCOC3=O)CC2)sc1C(=O)c1c(F)cccc1F` [Example S153] gave an inhibition at 0.25 µM of 100%. `Nc1nc(NC2CCN(S(=O)(=O)CCNCCc3cccs3)CC2)sc1C(=O)c1c(F)cccc1F` [Example S148] gave an inhibition at 0.25 µM of 34%. `CC(C)CCNCCS(=O)(=O)N1CCC(Nc2nc(N)c(C(=O)c3c(F)cccc3F)s2)CC1` [Example S122] gave an inhibition at 0.25 µM of 54%. For `CC1CCCC(C)N1CCS(=O)(=O)N1CCC(Nc2nc(N)c(C(=O)c3c(F)cccc3F)s2)CC1` (stereo not drawn) [Example S14], the inhibition at 0.25 µM was 91%. For `CC(C)N(CCS(=O)(=O)N1CCC(Nc2nc(N)c(C(=O)c3c(F)cccc3F)s2)CC1)C1CCCCC1` [Example S8], the inhibition at 0.25 µM was 91%. In the case of `Cc1cccc(CNCCS(=O)(=O)N2CCC(Nc3nc(N)c(C(=O)c4c(F)cccc4F)s3)CC2)c1` [Example S101], the inhibition at 0.25 µM is reported as 80%. `CCN(CCS(=O)(=O)N1CCC(Nc2nc(N)c(C(=O)c3c(F)cccc3F)s2)CC1)C1CCCCC1` [Example S10] showed an inhibition at 0.25 µM of 62%. Compound `COC(=O)[C@@H](C)NCCS(=O)(=O)N1CCC(Nc2nc(N)c(C(=O)c3c(F)cccc3F)s2)CC1` [Example S155] has an inhibition at 0.25 µM of 96%. In the case of `NC(=O)C1CCN(CCS(=O)(=O)N2CCC(Nc3nc(N)c(C(=O)c4c(F)cccc4F)s3)CC2)CC1` [Example S48], the inhibition at 0.25 µM is reported as 17%. `Cc1ccc(CNCCS(=O)(=O)N2CCC(Nc3nc(N)c(C(=O)c4c(F)cccc4F)s3)CC2)c(C)c1` [Example S137] gave an inhibition at 0.25 µM of 43%. Compound `CC1CCCCN1CCS(=O)(=O)N1CCC(Nc2nc(N)c(C(=O)c3c(F)cccc3F)s2)CC1` (stereo not drawn) [Example S15] has an inhibition at 0.25 µM of 46%. Compound `NC(=O)[C@H]1CCCN1CCS(=O)(=O)N1CCC(Nc2nc(N)c(C(=O)c3c(F)cccc3F)s2)CC1` [Example S64] has an inhibition at 0.25 µM of 12%. For `CN(CCS(=O)(=O)N1CCC(Nc2nc(N)c(C(=O)c3c(F)cccc3F)s2)CC1)CC(=O)N(C)C` [Example S55], the inhibition at 0.25 µM was 7%. `Nc1nc(NC2CCN(S(=O)(=O)CCNCc3ccccc3Cl)CC2)sc1C(=O)c1c(F)cccc1F` [Example S96] was tested, and the inhibition at 0.25 µM was 48%. Work on `NC(=O)[C@@H]1CCCN1CCS(=O)(=O)N1CCC(Nc2nc(N)c(C(=O)c3c(F)cccc3F)s2)CC1` [Example S20] yielded an inhibition at 0.25 µM of 18%. `CN(CCS(=O)(=O)N1CCC(Nc2nc(N)c(C(=O)c3c(F)cccc3F)s2)CC1)Cc1cccnc1` [Example S34] showed an inhibition at 0.25 µM of 21%. `Cc1ccc(CNCCS(=O)(=O)N2CCC(Nc3nc(N)c(C(=O)c4c(F)cccc4F)s3)CC2)cc1` [Example S105] was tested, and the inhibition at 0.25 µM was 33%. `Nc1nc(NC2CCN(S(=O)(=O)CCN3CCC[C@@H]3CO)CC2)sc1C(=O)c1c(F)cccc1F` [Example S54] was tested, and the inhibition at 0.25 µM was 16%. Work on `Nc1nc(NC2CCN(S(=O)(=O)CCNCc3cc(F)cc(F)c3)CC2)sc1C(=O)c1c(F)cccc1F` [Example S154] yielded an inhibition at 0.25 µM of 31%. Compound `Nc1nc(NC2CCN(S(=O)(=O)CCNCC(F)(F)F)CC2)sc1C(=O)c1c(F)cccc1F` [Example S106] has an inhibition at 0.25 µM of 98%. Work on `Nc1nc(NC2CCN(S(=O)(=O)CCNCCNc3ccccc3)CC2)sc1C(=O)c1c(F)cccc1F` [Example S112] yielded an inhibition at 0.25 µM of 15%. For `Nc1nc(NC2CCN(S(=O)(=O)CCNCCc3cccnc3)CC2)sc1C(=O)c1c(F)cccc1F` [Example S167], the inhibition at 0.25 µM was 3%. For `CC(C)C(CO)NCCS(=O)(=O)N1CCC(Nc2nc(N)c(C(=O)c3c(F)cccc3F)s2)CC1` (stereo not drawn) [Example S74], the inhibition at 0.25 µM was 9%. `C=CC(O)CN(CCC)CCS(=O)(=O)N1CCC(Nc2nc(N)c(C(=O)c3c(F)cccc3F)s2)CC1` (stereo not drawn) [Example S47] gave an inhibition at 0.25 µM of 8%. For `Cc1cnc(CNCCS(=O)(=O)N2CCC(Nc3nc(N)c(C(=O)c4c(F)cccc4F)s3)CC2)cn1` [Example S171], the inhibition at 0.25 µM was 18%. `Nc1nc(NC2CCN(S(=O)(=O)CCNC3CC3)CC2)sc1C(=O)c1c(F)cccc1F` [Example S60] was tested, and the inhibition at 0.25 µM was 72%.
